Data as given in ChEMBL document CHEMBL1201862, “PubChem BioAssay data set” (2004).
Active and inactive are the calls of the source.

Tests used:
HeLa = experiment: viability loss in HeLa cells – cell-based, ATP luminescence, cherry-pick samples, cytotoxicity control, dose response (AID 687004); type: functional; conditions: Homo sapiens
[1] = biological target: Fructose-bisphosphate aldolase (Mycobacterium tuberculosis, UniProt P9WQA3); experiment: Fluorescence-based biochemical high throughput dose response assay for inhibitors of the fructose-bisphosphate aldolase (FBA) of M. tuberculosis.; type: functional
Chain of Fructose-bisphosphate aldolase (P9WQA3 whole entry): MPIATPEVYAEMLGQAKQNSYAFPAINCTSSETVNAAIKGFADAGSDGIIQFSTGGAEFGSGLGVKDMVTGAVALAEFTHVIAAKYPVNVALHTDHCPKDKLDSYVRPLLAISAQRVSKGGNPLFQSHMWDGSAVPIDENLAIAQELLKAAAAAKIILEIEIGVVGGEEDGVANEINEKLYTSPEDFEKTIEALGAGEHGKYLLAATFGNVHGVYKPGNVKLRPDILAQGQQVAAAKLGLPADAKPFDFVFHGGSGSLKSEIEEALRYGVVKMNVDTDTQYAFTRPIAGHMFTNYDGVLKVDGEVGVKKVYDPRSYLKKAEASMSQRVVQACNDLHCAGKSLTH

Beta-galactosidase = Beta-galactosidase (Escherichia coli, UniProt Q8VNN2); experiment: Dose response counterscreen for EBI2 assay utilizing the enzyme, b-galactosidase.; type: functional
Chain of Beta-galactosidase (Q8VNN2 whole entry): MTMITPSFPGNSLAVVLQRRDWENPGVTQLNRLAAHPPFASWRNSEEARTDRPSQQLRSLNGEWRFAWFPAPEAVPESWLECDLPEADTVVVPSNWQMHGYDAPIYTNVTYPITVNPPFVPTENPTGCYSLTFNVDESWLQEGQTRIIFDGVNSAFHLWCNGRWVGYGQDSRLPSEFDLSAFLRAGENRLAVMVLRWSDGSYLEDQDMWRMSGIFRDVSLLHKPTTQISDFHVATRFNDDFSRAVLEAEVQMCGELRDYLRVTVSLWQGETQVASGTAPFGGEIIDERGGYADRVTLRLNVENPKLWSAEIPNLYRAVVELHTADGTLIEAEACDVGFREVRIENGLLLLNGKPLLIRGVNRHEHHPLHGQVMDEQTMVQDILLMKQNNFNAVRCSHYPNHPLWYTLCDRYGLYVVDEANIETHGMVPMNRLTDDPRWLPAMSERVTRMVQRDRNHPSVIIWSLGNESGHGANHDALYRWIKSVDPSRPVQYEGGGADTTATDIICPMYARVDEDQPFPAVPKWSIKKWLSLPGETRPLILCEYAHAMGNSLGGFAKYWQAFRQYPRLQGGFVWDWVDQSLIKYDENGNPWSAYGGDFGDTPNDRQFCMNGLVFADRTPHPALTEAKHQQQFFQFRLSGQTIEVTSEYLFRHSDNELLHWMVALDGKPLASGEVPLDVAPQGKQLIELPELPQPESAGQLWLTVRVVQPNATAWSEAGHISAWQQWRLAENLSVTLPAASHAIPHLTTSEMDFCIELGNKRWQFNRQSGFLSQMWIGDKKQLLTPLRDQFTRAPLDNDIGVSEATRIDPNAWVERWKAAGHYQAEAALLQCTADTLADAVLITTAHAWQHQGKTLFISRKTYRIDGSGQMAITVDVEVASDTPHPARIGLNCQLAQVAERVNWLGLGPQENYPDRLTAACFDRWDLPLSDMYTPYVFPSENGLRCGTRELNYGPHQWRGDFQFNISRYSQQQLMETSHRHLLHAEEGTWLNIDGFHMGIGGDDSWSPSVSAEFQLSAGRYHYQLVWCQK

Streptococcus = experiment: GAS UMAA2166 growth inhibition – luminescence, BacTiterGlo, counter-screen for streptokinase expression inhibitor project, dose response (AID 1915); type: functional, organism-based;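 note: potency for reduction of bacterial viability or growth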
BJ [2] = experiment: cells; type: functional, cell-based; conditions: Homo sapiens
[3] = alpha-synuclein stem-loop luciferase translation blockers – H4 neuroglioma cells, luminescence, confirmation (AID 1988); type: functional, cell-based
Protein RecA = biological target: T1, Protein RecA (Mycobacterium tuberculosis, UniProt P9WHJ3); experiment: Fluorescence Cell-Free Homogeneous Dose Retest to Identify Inhibitors of RecA-Intein Splicing Activity. [Related pubchem assays (depositor defined):AID2097, AID2223, AID489010, AID492950]; type: functional
T1 sequence (P9WHJ3 whole entry): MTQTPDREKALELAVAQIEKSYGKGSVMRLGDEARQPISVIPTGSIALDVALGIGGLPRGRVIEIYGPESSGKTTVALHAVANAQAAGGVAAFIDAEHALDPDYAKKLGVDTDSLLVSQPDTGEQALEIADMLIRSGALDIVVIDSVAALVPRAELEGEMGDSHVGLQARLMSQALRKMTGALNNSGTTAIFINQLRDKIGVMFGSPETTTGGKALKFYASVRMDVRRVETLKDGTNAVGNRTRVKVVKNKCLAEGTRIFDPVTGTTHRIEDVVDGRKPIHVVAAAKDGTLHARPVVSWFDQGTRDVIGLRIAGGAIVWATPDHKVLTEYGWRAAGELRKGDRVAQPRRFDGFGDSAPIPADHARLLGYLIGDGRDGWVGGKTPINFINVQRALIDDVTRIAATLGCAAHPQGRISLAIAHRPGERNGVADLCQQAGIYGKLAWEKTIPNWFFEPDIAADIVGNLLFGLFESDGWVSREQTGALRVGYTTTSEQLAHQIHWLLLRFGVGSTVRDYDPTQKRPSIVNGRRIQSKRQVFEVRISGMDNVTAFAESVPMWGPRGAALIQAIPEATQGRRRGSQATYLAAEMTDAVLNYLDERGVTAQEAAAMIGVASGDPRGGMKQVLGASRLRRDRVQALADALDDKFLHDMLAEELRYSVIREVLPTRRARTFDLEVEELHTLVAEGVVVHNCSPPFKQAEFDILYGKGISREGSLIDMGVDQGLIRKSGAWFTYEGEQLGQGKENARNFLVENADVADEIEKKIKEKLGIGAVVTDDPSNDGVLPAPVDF

[4] = luciferase reporter signal suppression in cells – H4 neuroglioma cells, luminescence, dose response (AID 1990); type: functional, cell-based
Streptokinase A = biological target: T2, Streptokinase A (Streptococcus pyogenes serotype M1, UniProt P10520); experiment: viability-normalized secreted streptokinase activity reduction – plasminogen activation absorbance, OD405, dose response (AID 1914); type: functional, Streptococcus pyogenes M1 GAS;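 note: secreted streptokinase activity via plasminogen activation per viability signal from cell pellet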
T2 sequence (P10520 whole entry): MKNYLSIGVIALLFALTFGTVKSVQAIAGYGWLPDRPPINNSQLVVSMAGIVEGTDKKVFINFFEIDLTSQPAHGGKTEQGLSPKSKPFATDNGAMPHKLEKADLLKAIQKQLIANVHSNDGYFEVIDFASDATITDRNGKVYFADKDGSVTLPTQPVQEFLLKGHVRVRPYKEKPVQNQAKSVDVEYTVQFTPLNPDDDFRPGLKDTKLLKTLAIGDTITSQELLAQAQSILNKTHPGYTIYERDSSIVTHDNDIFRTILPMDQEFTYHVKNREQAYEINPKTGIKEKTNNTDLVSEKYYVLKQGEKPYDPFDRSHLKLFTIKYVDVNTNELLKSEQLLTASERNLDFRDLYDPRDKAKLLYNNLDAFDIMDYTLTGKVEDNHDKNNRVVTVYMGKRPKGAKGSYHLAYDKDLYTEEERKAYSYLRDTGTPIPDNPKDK

BJ [5] = experiment: BJ-TERT-LT-ST fibroblast viability loss – cell-based, RAS-independent, luminescence, dose response (AID 1935); type: functional; conditions: Homo sapiens;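 note: BJ fibroblasts immortalized with TERT plus LT and ST oncogenes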
[6] = DRD fibroblast viability loss – cell-based, non-viral oncogenic, luminescence, dose response (AID 1934); type: functional; conditions: Homo sapiens
[7] = Luminescence Cell-Based Dose Response HTS to Identify Inhibitors of 5'UTR Stem-Loop Driven Prion Protein mRNA Translation in H4 Neuroglioblastoma Cells. [Related pubchem assays: 1827 (Project Summary), 1813 (Primary HTS)]; type: functional
[8] = biological target: T3, Replicative DNA helicase DnaB (Mycobacterium tuberculosis, UniProt P9WMR3); experiment: DnaB intein splicing inhibitors, dose response, biochemical, cell-free fluorescence (AID 449749); type: functional
T3 sequence (P9WMR3 whole entry): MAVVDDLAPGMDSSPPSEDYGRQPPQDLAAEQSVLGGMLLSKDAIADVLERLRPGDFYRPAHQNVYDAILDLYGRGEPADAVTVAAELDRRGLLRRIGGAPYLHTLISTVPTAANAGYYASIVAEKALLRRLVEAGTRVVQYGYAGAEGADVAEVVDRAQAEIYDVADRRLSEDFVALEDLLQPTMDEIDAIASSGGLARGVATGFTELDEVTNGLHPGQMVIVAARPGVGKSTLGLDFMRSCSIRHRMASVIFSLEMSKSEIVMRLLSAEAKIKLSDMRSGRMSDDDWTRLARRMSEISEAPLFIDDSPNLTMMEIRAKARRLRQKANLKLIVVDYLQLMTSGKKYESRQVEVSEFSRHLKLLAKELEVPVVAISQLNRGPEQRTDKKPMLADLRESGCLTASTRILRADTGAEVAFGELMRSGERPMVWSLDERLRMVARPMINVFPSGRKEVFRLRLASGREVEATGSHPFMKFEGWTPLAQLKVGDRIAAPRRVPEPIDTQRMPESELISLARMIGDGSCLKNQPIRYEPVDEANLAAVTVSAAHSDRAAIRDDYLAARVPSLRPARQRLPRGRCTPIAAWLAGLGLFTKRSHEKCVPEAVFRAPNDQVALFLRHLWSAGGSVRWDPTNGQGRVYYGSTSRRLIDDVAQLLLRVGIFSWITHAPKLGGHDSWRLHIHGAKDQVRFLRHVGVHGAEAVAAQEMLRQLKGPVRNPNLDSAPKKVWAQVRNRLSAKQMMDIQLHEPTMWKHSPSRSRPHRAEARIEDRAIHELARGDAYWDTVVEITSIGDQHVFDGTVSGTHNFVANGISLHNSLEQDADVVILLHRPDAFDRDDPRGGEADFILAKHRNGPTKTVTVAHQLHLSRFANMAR

BJ [9] = experiment: BJ-TERT fibroblast viability loss – cell-based, RAS-independent, luminescence, dose response (AID 1933); type: functional; conditions: Homo sapiens
[10] = tested on: Streptococcus sp. 'group A'; experiment: Streptococcus pyogenes SK(-)GAS viability under kanamycin – luminescence, BacTiterGlo, confirmation, counter-screen for streptokinase expression inhibitor project, dose response (AID 1900); type: functional, organism-based
INS1 = experiment: INS-1E survival protection against cytokine death – cell-based, luminescence, retest, dose response (AID 449756); type: functional; conditions: Rattus norvegicus;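 note: cell death triggered by IL-1 beta plus TNF-alpha plus IFN-gamma mixture; protective hits raise ATP signal compared with cytokine alone wells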
[11] = biological target: T4, Aryl hydrocarbon receptor (Homo sapiens, UniProt P35869); conditions: Potency;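 note: confirmatory quantitative high-throughput screen measuring activation of the AhR signaling pathway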
T4 sequence (P35869 whole entry): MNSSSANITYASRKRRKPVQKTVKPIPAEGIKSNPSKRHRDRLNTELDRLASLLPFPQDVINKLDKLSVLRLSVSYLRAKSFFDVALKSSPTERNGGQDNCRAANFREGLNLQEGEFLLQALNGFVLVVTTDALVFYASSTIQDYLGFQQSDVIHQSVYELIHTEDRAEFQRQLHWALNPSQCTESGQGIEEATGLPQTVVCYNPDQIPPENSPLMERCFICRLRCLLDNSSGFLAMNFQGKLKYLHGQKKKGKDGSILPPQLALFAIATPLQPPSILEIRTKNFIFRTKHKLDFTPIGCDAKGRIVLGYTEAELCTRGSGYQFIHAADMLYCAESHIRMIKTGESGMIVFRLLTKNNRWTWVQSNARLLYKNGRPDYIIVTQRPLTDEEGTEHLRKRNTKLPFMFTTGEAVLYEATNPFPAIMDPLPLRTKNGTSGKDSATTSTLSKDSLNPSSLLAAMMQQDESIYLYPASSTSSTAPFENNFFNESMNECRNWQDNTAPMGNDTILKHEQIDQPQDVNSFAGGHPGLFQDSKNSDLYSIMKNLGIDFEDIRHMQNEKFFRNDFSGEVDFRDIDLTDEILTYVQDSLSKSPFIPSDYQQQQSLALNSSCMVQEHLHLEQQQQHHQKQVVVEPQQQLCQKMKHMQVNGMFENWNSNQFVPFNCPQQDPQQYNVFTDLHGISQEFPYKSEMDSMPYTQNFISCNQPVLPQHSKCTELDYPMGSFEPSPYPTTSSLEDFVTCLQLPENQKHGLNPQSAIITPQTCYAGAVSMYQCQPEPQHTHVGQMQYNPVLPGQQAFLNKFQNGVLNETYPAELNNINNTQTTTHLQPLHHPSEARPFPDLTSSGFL

[12] = biological target: Voltage-gated inwardly rectifying potassium channel KCNH2 (Homo sapiens, UniProt Q12809); conditions: Potency;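 note: confirmatory quantitative high-throughput screen measuring inhibition of hERG channel activity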
Chain of Voltage-gated inwardly rectifying potassium channel KCNH2 (Q12809 whole entry, the tested form may be a part): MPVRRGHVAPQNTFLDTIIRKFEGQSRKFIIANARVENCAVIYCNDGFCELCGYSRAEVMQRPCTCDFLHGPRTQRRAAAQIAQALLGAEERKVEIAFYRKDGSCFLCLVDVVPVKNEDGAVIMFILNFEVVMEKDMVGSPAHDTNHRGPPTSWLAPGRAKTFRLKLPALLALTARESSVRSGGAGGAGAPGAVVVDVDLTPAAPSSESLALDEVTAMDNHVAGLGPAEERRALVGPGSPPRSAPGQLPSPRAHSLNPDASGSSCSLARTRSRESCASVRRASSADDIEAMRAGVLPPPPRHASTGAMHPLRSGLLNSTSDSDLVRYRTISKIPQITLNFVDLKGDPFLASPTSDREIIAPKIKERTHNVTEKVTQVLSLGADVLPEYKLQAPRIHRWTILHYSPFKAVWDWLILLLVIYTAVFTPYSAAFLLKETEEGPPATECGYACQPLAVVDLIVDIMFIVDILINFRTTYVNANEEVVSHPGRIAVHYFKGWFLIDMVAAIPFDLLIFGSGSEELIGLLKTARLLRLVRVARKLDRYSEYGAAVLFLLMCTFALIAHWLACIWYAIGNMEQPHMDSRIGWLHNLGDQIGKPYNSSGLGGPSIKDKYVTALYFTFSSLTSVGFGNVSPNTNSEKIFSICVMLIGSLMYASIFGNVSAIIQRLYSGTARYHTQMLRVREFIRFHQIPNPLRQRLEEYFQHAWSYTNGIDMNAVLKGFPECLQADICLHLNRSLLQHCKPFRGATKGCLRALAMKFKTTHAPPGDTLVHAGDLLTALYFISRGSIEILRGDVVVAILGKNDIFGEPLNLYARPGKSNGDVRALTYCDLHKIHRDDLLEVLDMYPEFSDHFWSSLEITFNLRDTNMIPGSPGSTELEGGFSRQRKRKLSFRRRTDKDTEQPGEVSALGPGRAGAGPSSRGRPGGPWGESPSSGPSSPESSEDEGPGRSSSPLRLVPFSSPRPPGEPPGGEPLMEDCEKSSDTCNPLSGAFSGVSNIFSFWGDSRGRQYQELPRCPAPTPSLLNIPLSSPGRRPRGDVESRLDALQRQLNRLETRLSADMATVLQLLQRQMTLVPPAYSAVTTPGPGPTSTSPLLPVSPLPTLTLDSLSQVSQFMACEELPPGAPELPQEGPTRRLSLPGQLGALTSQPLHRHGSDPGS

[13] = biological target: Hepatocyte nuclear factor 4-alpha (Homo sapiens, UniProt P41235); type: functional, cell-based;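 note: biochemical luminescence-based dose-response counterscreen measuring inhibition of HNF4 dimerization, run alongside a screen for blockers of ABHD5–perilipin-5 interaction; split luciferase complementation of HNF4 fusion proteins in cell lysate measuring dimerization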
Chain of Hepatocyte nuclear factor 4-alpha (P41235 whole entry, the tested form may be a part): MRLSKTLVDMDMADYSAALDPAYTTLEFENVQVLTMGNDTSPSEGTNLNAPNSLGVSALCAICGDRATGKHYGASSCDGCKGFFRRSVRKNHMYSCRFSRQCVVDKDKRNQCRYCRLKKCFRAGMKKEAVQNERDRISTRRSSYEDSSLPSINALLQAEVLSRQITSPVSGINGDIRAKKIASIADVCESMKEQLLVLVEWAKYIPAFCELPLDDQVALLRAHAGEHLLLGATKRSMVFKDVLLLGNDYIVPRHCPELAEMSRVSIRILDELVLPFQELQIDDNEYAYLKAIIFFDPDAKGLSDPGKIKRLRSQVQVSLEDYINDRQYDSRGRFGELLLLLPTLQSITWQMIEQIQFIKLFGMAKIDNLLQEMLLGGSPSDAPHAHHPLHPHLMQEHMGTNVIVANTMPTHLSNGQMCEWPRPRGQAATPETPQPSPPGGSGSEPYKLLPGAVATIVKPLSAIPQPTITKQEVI

Beta Lactamase = Beta Lactamase (Pseudomonas aeruginosa, UniProt Q932Y6); experiment: BLA reporter interference, concentration series – BLA reporter cells, FRET fluorescence, artefact control for TLR9-MyD88 binding inhibitor project, dose response (AID 588341); type: cell-based;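 note: cell based assay in CHO-K1 cells stably expressing beta-lactamase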
Chain of Beta Lactamase (Q932Y6 whole entry): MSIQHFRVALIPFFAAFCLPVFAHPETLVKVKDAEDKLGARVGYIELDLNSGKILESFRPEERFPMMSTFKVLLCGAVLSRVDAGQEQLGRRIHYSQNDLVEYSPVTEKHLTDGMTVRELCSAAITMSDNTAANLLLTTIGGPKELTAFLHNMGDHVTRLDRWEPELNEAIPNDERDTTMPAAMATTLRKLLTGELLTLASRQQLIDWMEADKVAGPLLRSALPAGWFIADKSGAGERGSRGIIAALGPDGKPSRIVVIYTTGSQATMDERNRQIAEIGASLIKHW

[14] = viability loss in HEK293T cells – cell-based, cherry-picks, cytotoxicity control for HIV Vif inhibitor project, dose response (AID 652208); type: functional
[15] = Luminescence Cell-Based Dose Retest to Confirm Inhibitors of Cancer Stem Cells. [Related pubchem assays (depositor defined):AID2717, AID2721]; type: functional; conditions: Homo sapiens
CHO = CHO cell viability loss, potency – luminescence, cytotoxicity control for TLR9-MyD88 binding inhibitor project, dose response (AID 588339); type: functional, cell-based, hamster; conditions: Cricetulus griseus;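 note: CHO cells stably coexpressing TLR9 and MyD88 fusions from primary screen; compound exposure lasted 48 hours before viability readout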

For CC(=O)c1sc(NC(=O)c2cc(-c3ccccc3)nn2-c2ccccc2)nc1C, the AC50 (HeLa) was > 52 µM (inactive).
In the case of Cc1ccc(-c2cc(C(=O)O)c3cc(Br)ccc3n2)s1, the IC50 [1] is reported as > 1.11 µM (active).
In the case of CCc1cc2cc(C(=O)N3CCN(Cc4ccccc4)CC3)sc2s1, the IC50 (Beta-galactosidase) is reported as > 80 µM (inactive).
For Cc1ccc(-c2cc(-c3ccc(C)cc3)[n+](-c3ccc(C(=O)[O-])cc3)c(-c3ccc(C)cc3)c2)cc1, the IC50 [1] was 1.86 µM (active), the EC50 (Streptococcus) was > 150 µM (not active) and the EC50 (BJ [2]) was 13.6 µM (active). The EC50 [3] was > 120 µM (not active), the EC50 (Protein RecA) was 40.5 µM (active) and the EC50 [4] was > 120 µM (not active). The EC50 (Streptokinase A) was > 150 µM (not active), the EC50 (BJ [5]) was 14.9 µM (inconclusive) and the EC50 [6] was 8.62 µM (inconclusive). The EC50 [7] was 63.5 µM (active), the AC50 [8] was 38.2 µM (active) and the EC50 (BJ [9]) was 2.76 µM (active). The EC50 [10] was 12.6 µM (active) and the AC50 (INS1) was 6.34 µM (active).
With [O-]/[N+](=N/c1ccccc1)c1ccccc1 the AC50 [11] was 56.2 µM (inconclusive) and the AC50 [12] was 50.1 µM (inconclusive).
With CCCCCCC=C1CCC(CN2CCCC2)C1=O (centres undefined) the IC50 [13] was 2.25 µM (active).
With COc1ccc(-c2nc3cnccn3c2NC2CCCCC2)cc1-c1cccc(Cl)c1 the IC50 (Beta Lactamase) was 6.78 µM (active), the AC50 [14] was 39.2 µM (active) and the AC50 [15] was 4.23 µM (active). For the same compound, the IC50 (CHO) was 25.4 µM (inactive).
